Measured values as given in ChEMBL document CHEMBL1201862, “PubChem BioAssay data set” (2004).
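Grown in 96-well plates, cells were treated for 48 hours with each compound at five concentrations. Insufficient inhibition: endpoint recorded as highest concentration tested. At the GI50, growth is halved.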 Calls of active or inactive are those of the source. Cut-off read from the data, not from the text of the source: active = GI50 up to about 1.1 µM and inactive = higher. Where a SMILES comes first, the peptide text is derived from it. Bridges are numbered along the chain shown (N, C = ends). [ ]: non-standard residue; d: D form. The star is where a group is joined. ξ: configuration not given here. PhAc = O=C(Cc1ccccc1)*; ξP = O=C(O)C1CCCN1

Legend:
Experiment in all cases: DTP human tumour cell line panel, 48 h
NCI-H522 = system: NCI-H522
SK-OV-3 = system: SK-OV-3
PC-3 = system: PC-3
A549 = system: A549
SF-295 = system: SF-295
OVCAR-4 = system: OVCAR-4
SF-539 = system: SF-539
COLO 205 = system: COLO 205
Hs-578T = system: Hs-578T
HT-29 = system: HT-29
HOP-92 = system: HOP-92
M14 = system: M14
NCI-H460 = system: NCI-H460
SNB-19 = system: SNB-19
RPMI-8226 = system: RPMI-8226
HOP-62 = system: HOP-62
SK-MEL-5 = system: SK-MEL-5
786-0 = system: 786-0
LOX IMVI = system: LOX IMVI
SR = system: SR

Measured: GI50

Cc1cn([C@@H]2O[C@H](CO[Si](C)(C)C(C)(C)C)[C@]3(O[C@H]3C(=O)NN)[C@H]2O[Si](C)(C)C(C)(C)C)c(=O)[nH]c1=O
inactive: NCI-H522 2.2 µM | SK-OV-3 18.1 µM | PC-3 4.6 µM | A549 6.03 µM | SF-295 7.69 µM | OVCAR-4 6.4 µM | SF-539 4.75 µM | COLO 205 2.64 µM | Hs-578T 2.72 µM | HT-29 2.9 µM | HOP-92 6.24 µM | M14 7.18 µM | NCI-H460 4.31 µM | SNB-19 7.66 µM | RPMI-8226 4.29 µM | HOP-62 14.4 µM | SK-MEL-5 10.4 µM | 786-0 4.06 µM | LOX IMVI 3.33 µM

Cc1ccc(S(=O)(=O)N/N=C2/C3CC4CCC2C4C3)cc1 (centres undefined)
inactive: NCI-H522 > 100 µM | SK-OV-3 > 100 µM | PC-3 > 100 µM | A549 > 100 µM | SF-295 > 100 µM | OVCAR-4 > 100 µM | SF-539 > 100 µM | COLO 205 > 100 µM | Hs-578T > 100 µM | HT-29 > 100 µM | HOP-92 > 100 µM | M14 > 100 µM | NCI-H460 > 100 µM | RPMI-8226 > 100 µM | HOP-62 > 100 µM | SK-MEL-5 > 100 µM | 786-0 > 100 µM | LOX IMVI > 100 µM

COc1ccc(NC2CC(C)N(C(=O)c3ccccc3)O2)cc1 (centres undefined)
inactive: NCI-H522 > 10 µM | SK-OV-3 > 10 µM | PC-3 > 10 µM | A549 > 10 µM | SF-295 > 10 µM | OVCAR-4 > 10 µM | SF-539 > 10 µM | COLO 205 > 10 µM | Hs-578T > 10 µM | HT-29 > 10 µM | M14 > 10 µM | NCI-H460 > 10 µM | SNB-19 > 10 µM | SR > 10 µM | RPMI-8226 > 10 µM | HOP-62 > 10 µM | SK-MEL-5 > 10 µM | 786-0 > 10 µM | LOX IMVI > 10 µM

Clc1ccc(CSC2=NCCN2)cc1Cl
inactive: NCI-H522 4.5 µM | SK-OV-3 24.6 µM | PC-3 10.4 µM | A549 27 µM | SF-295 36.8 µM | OVCAR-4 11.6 µM | COLO 205 17.7 µM | Hs-578T 19.8 µM | HT-29 14.2 µM | HOP-92 3.3 µM | M14 15.2 µM | NCI-H460 16.1 µM | SNB-19 32.3 µM | RPMI-8226 6.75 µM | HOP-62 23.4 µM | SK-MEL-5 12.7 µM | 786-0 11.6 µM | LOX IMVI 13.8 µM

N#CC(=C1CCCCC1)c1nc2ccccc2o1
inactive: NCI-H522 20.6 µM | SK-OV-3 > 100 µM | PC-3 56.9 µM | A549 51.1 µM | SF-295 > 100 µM | OVCAR-4 52.8 µM | SF-539 31.7 µM | COLO 205 19.6 µM | Hs-578T 58.7 µM | HT-29 61.5 µM | HOP-92 34.5 µM | M14 80.7 µM | NCI-H460 > 100 µM | SNB-19 > 100 µM | SR 37.9 µM | RPMI-8226 25.9 µM | HOP-62 > 100 µM | SK-MEL-5 41.4 µM | 786-0 > 100 µM

CC(C)(C)OC(=O)C1/C(=C/CO)CN1C(=O)OC(C)(C)C (centres undefined)
inactive: SK-OV-3 > 100 µM | PC-3 > 100 µM | A549 > 100 µM | SF-295 > 100 µM | OVCAR-4 63.7 µM | SF-539 > 100 µM | COLO 205 > 100 µM | Hs-578T > 100 µM | HT-29 > 100 µM | HOP-92 > 100 µM | M14 > 100 µM | NCI-H460 > 100 µM | SNB-19 > 100 µM | SR 90.8 µM | RPMI-8226 > 100 µM | HOP-62 > 100 µM | SK-MEL-5 > 100 µM | 786-0 > 100 µM | LOX IMVI > 100 µM

O=C(Cc1ccccc1)N[C@@H]1COC(=O)C2CCCN2C(=O)[C@@H]2CCCN2C1=O (some centres undefined) (PhAc-[dS]-Pro-[ξP]; ester 1-C)
inactive: SK-OV-3 > 100 µM | PC-3 > 100 µM | A549 > 100 µM | SF-295 > 100 µM | OVCAR-4 > 100 µM | SF-539 > 100 µM | COLO 205 > 100 µM | Hs-578T > 100 µM | HT-29 > 100 µM | HOP-92 > 100 µM | M14 > 100 µM | NCI-H460 > 100 µM | SNB-19 > 100 µM | SR > 100 µM | HOP-62 > 100 µM | SK-MEL-5 > 100 µM | 786-0 > 100 µM | LOX IMVI > 100 µM

Cn1c(NN)nc(-c2ccc([N+](=O)[O-])cc2)c(C#N)c1=O
inactive: NCI-H522 16.4 µM | SK-OV-3 14.9 µM | PC-3 15.3 µM | A549 19.8 µM | SF-295 16.1 µM | OVCAR-4 15.6 µM | COLO 205 20 µM | Hs-578T 14.5 µM | HT-29 12.8 µM | M14 12.5 µM | NCI-H460 17.3 µM | SNB-19 13.5 µM | SR 18.7 µM | RPMI-8226 29.1 µM | HOP-62 14.1 µM | SK-MEL-5 4.25 µM | 786-0 14.2 µM | LOX IMVI 17.1 µM

CC(NC(=O)OC(C)(C)C)C(=O)C(N)=O (centres undefined)
inactive: SK-OV-3 > 100 µM | PC-3 > 100 µM | A549 > 100 µM | SF-539 > 100 µM | COLO 205 > 100 µM | Hs-578T > 100 µM | HOP-92 > 100 µM | M14 > 100 µM | NCI-H460 > 100 µM | SNB-19 > 100 µM | SR 38.6 µM | RPMI-8226 > 100 µM | HOP-62 > 100 µM | SK-MEL-5 > 100 µM | 786-0 > 100 µM | LOX IMVI > 100 µM

COc1ccc(N2C(=O)C3c4[nH]c5ccccc5c4C4CCCCCCCCCC4C3C2=O)cc1 (centres undefined)
inactive: NCI-H522 > 10 µM | SK-OV-3 > 10 µM | PC-3 > 10 µM | A549 > 10 µM | SF-295 > 10 µM | OVCAR-4 > 10 µM | SF-539 7.28 µM | COLO 205 > 10 µM | Hs-578T > 10 µM | HT-29 > 10 µM | M14 > 10 µM | NCI-H460 > 10 µM | SNB-19 > 10 µM | SR > 10 µM | RPMI-8226 > 10 µM | HOP-62 > 10 µM | SK-MEL-5 > 10 µM | LOX IMVI > 10 µM

COc1ccc(/C=C/C(=O)c2ccc(Br)cc2)cc1
inactive: SK-OV-3 > 100 µM | PC-3 > 100 µM | A549 > 100 µM | SF-295 > 100 µM | OVCAR-4 > 100 µM | SF-539 > 100 µM | COLO 205 > 100 µM | Hs-578T 64.7 µM | HT-29 > 100 µM | M14 > 100 µM | NCI-H460 > 100 µM | SNB-19 > 100 µM | SR 84.1 µM | RPMI-8226 57 µM | HOP-62 > 100 µM | SK-MEL-5 > 100 µM | 786-0 > 100 µM
